In the supplement of paper PMC10307832:

Legend:
Test in all cases: relative viability (nuclei count vs DMSO), 5 days (fraction); higher = more cells survive
Sunitinib + Linsitinib = compound: CCN(CC)CCNC(=O)c1c(C)[nH]c(/C=C2\C(=O)Nc3ccc(F)cc32)c1C [Sunitinib] + C[C@]1(O)C[C@@H](c2nc(-c3ccc4ccc(-c5ccccc5)nc4c3)c3c(N)nccn32)C1 [Linsitinib] (partner 1 µM)
Procedure, shortened: (§1)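 Lung cancer cell lines, seeded in 1536-well plates, were treated the following day by pin tool with a single drug or with five library-drug doses (not always all listed) in √10 steps on top of a fixed anchor-drug dose. Cells were fixed and nuclei stained in one step after 5 days, and nuclei were counted. Relative viability is the nuclei count for treated wells divided by that for vehicle wells, reported as medians of duplicate plates.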

Sunitinib + OSI-027 = compound: CCN(CC)CCNC(=O)c1c(C)[nH]c(/C=C2\C(=O)Nc3ccc(F)cc32)c1C [Sunitinib] + COc1cccc2cc(-c3nc([C@H]4CC[C@H](C(=O)O)CC4)n4ncnc(N)c34)[nH]c12 [OSI-027] (partner 0.5 µM)
Procedure, shortened: as §1

Sunitinib + Crizotinib = compound: CCN(CC)CCNC(=O)c1c(C)[nH]c(/C=C2\C(=O)Nc3ccc(F)cc32)c1C [Sunitinib] + C[C@@H](Oc1cc(-c2cnn(C3CCNCC3)c2)cnc1N)c1c(Cl)ccc(F)c1Cl [Crizotinib] (partner 1 µM)
Procedure, shortened: as §1

Sunitinib + Tozasertib = compound: CCN(CC)CCNC(=O)c1c(C)[nH]c(/C=C2\C(=O)Nc3ccc(F)cc32)c1C [Sunitinib] + Cc1cc(Nc2cc(N3CCN(C)CC3)nc(Sc3ccc(NC(=O)C4CC4)cc3)n2)n[nH]1 [Tozasertib] (partner 0.1 µM)
Procedure, shortened: as §1

Cell Line	relative viability (Sunitinib + Linsitinib; first compound 0.06325 µM)	relative viability (Sunitinib + Linsitinib; first compound 0.2 µM)	relative viability (Sunitinib + Linsitinib; first compound 2 µM)	relative viability (Sunitinib + OSI-027; first compound 0.02 µM)	relative viability (Sunitinib + OSI-027; first compound 0.06325 µM)	relative viability (Sunitinib + OSI-027; first compound 0.2 µM)	relative viability (Sunitinib + OSI-027; first compound 0.6325 µM)	relative viability (Sunitinib + OSI-027; first compound 2 µM)	relative viability (Sunitinib + Crizotinib; first compound 0.02 µM)	relative viability (Sunitinib + Crizotinib; first compound 0.06325 µM)	relative viability (Sunitinib + Crizotinib; first compound 0.2 µM)	relative viability (Sunitinib + Crizotinib; first compound 0.6325 µM)	relative viability (Sunitinib + Crizotinib; first compound 2 µM)	relative viability (Sunitinib + Tozasertib; first compound 0.02 µM)	relative viability (Sunitinib + Tozasertib; first compound 0.06325 µM)	relative viability (Sunitinib + Tozasertib; first compound 0.2 µM)	relative viability (Sunitinib + Tozasertib; first compound 0.6325 µM)	relative viability (Sunitinib + Tozasertib; first compound 2 µM)	relative viability (Sunitinib + Linsitinib; first compound 0.02 µM)	relative viability (Sunitinib + Linsitinib; first compound 0.6325 µM)
NCI-H2087	1.01	0.938	0.889	0.423	0.755	0.636	0.577	0.449	0.909	1.09	1.15	0.967	0.791	0.253	0.259	0.329	0.284	0.233		
LCLC-97TM1	0.197		0.191	0.553	0.59	0.598	0.48	0.473	0.347	0.384		0.319	0.362	0.202	0.214	0.268	0.195	0.236	0.176	0.213
NCI-H1734	0.95	0.936	0.756	0.613	0.683	0.7	0.608	0.511	0.645	0.738	0.866	0.746	0.724	0.265	0.262	0.25	0.325	0.247	0.844	0.944
H3255	1.02		1.03	0.66	0.583	0.645	0.621	0.666	0.836	0.831	0.876	1.05	0.917	0.763	0.879	0.785	0.73	0.654	0.884	1.01
NCI-H2126	0.695	0.74	0.717	0.738	0.665	0.988	0.773	0.672	1.01	1.04	1.07	1.01	1.01	0.846	0.852	0.963	0.92	0.81	0.719	0.759
CAL-12T	0.82	1.2	1.01	0.665	0.695	0.748		0.397	0.564	0.735	0.623	0.791	0.582	0.324	0.302	0.314	0.324	0.213	0.807	1.06
COR-L23	1.1	1	0.999	0.73	0.829	0.889	0.878	0.779	0.663	0.748	0.799	0.761	0.727	0.19	0.217	0.196	0.215	0.176	0.902	1.02
BEN	0.862	1.07	0.896	0.306	0.32	0.281	0.3	0.273	0.835	0.956	1.18	0.93	0.955	0.526	0.426	0.576	0.61	0.466		0.951
HCC-366	0.619	0.606	0.571	0.895	0.862	1.1	0.904	0.636	0.559	0.519	1.02	0.593	0.551	0.12	0.0634	0.133	0.0819	0.0457	0.512	0.628
